Assay results as given in US20210255193A1, “LYSINE REACTIVE PROBES AND USES THEREOF” (The Scripps Research Institute, priority 2017, published 2021).

Assays:
Experiment in all cases: direct labeling of recombinantly expressed proteins by gel-based ABPP (WT vs lysine mutant)
Format in all cases: binding
TTR = target: T1, TTR (Homo sapiens, UniProt P02766); settings: TTR K35, KA mutant; 1 μM TTR in MDA-MB-231 lysate
T1 construct: made in house; host or cells: E. coli
From the text: (§1) Subcloning and mutagenesis. Unless noted below, genes were amplified from cDNA prepared from low passage HEK 293T cells using the Ribozol RNA extraction reagent (Amresco) and the iScript Reverse Transcription Supermix kit (Bio-Rad). For the following proteins cDNA clones were used for amplification instead: PFKP (5180268, Dharmacon), HK1 (BC008730, transomic), SIN3A (BC137098, transomic), G6PD (BC000337, transomic) and TGIF1 (BC031268, transomic). Mouse CARM1 in pFLAG-CMV-6c was a kind gift from the Mowen lab (TSRI). NUDT2 was obtained as synthesized gene (IDT). DNA was amplified with custom forward and reverse primers using phusion polymerase (NEB, M0530S), digested with the indicated restriction enzyme and ligated into pFLAG-CMV-6c or pRK5 with the appropriate affinity tag. Lysine mutants were generated using QuikChange site-directed mutagenesis using Phusion® High-Fidelity DNA Polymerase and primers containing the desired mutations and their respective complements. The cloning of TTR and its K35A mutant has been described in Choi et al., “Chemoselective small molecules that covalently modify one lysine in a non-enzyme protein in plasma,” Nat. Chem. Biol. 6, 133-139 (2010). TTR was expressed in E. coli and purified as described. For gel-based experiments 1 μM TTR was added into 1 mg ml^−1 soluble MDA-MB-231 lysate.
(§2) Direct labeling of recombinantly expressed proteins by gel-based ABPP. 50 μL of soluble HEK 293T proteome (1 mg ml^−1) expressing the respective protein (WT or KR mutant) or transfected with an empty vector were treated with 10 μM of the indicated probe for 1 h at room temperature. The samples were analyzed as described in the previous section. For quantification of relative labeling of the different protein variants, the intensity of labeling was determined by quantifying the integrated optical intensity of the bands using ImageLab 5.2.1 software (BioRad).

PFKP = target: T2, PFKP (Homo sapiens, UniProt Q01813); settings: PFKP K688, KR mutant; 10 μM probe, 1 h
T2 construct: Flag; expressed in transfected cells; host or cells: HEK 293T, transient transfection, soluble lysate; cDNA clone 5180268 (Dharmacon)
T2 sequence (Q01813 1-784): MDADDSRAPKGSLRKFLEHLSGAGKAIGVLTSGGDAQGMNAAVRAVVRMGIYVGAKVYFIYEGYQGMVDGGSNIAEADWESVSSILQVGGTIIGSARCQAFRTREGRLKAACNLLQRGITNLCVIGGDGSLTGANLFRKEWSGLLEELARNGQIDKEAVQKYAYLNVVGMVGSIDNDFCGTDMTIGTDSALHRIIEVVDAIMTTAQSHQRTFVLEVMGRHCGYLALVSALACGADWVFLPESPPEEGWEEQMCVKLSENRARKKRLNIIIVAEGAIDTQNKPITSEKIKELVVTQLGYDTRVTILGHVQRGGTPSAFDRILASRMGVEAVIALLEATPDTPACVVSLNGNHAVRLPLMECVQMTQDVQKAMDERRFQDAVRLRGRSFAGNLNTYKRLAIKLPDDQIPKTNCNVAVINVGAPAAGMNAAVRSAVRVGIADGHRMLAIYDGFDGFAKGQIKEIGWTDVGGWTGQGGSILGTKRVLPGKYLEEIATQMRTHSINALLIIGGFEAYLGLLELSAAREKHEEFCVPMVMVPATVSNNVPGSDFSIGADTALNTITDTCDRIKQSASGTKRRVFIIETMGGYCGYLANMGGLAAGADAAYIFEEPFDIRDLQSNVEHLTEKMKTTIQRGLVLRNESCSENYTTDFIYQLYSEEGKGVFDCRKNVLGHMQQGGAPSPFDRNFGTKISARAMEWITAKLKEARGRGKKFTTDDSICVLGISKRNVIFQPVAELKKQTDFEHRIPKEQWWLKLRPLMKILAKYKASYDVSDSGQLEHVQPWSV
From the text: as §1
(§3) Recombinant expression of proteins by transient transfection. HEK 293T cells were grown to 50% confluency in 10 ml DMEM supplemented with 10% fetal bovine serum (FBS), penicillin, streptomycin and glutamine in 10 cm tissue culture dishes. 3 μg of DNA was diluted in 500 μL DMEM and 30 μL of PEI (MW 40,000, 1 mg ml^−1, Polysciences) were added. The mixture was incubated at room temperature for 30 min and added dropwise to the cells. Cells were grown for 48 h at 37° C. with 5% CO2. Cells were washed with cold PBS, scraped with cold PBS and cell pellets were isolated by centrifugation (1,400 g, 3 min, 4° C.), and stored at −80° C. until use. Cell pellets were resuspended in PBS, lysed by sonication and fractionated (100,000 g, 45 min) to yield soluble and membrane fractions. The soluble fraction was adjusted to a final protein concentration of 1 mg ml^−1 for gel-based ABPP experiments.
as §2

PFKM = target: T3, PFKM (Homo sapiens, UniProt P08237); settings: PFKM K678, KR mutant; 10 μM probe, 1 h
T3 construct: expressed in transfected cells; host or cells: HEK 293T
T3 sequence (P08237 1-780): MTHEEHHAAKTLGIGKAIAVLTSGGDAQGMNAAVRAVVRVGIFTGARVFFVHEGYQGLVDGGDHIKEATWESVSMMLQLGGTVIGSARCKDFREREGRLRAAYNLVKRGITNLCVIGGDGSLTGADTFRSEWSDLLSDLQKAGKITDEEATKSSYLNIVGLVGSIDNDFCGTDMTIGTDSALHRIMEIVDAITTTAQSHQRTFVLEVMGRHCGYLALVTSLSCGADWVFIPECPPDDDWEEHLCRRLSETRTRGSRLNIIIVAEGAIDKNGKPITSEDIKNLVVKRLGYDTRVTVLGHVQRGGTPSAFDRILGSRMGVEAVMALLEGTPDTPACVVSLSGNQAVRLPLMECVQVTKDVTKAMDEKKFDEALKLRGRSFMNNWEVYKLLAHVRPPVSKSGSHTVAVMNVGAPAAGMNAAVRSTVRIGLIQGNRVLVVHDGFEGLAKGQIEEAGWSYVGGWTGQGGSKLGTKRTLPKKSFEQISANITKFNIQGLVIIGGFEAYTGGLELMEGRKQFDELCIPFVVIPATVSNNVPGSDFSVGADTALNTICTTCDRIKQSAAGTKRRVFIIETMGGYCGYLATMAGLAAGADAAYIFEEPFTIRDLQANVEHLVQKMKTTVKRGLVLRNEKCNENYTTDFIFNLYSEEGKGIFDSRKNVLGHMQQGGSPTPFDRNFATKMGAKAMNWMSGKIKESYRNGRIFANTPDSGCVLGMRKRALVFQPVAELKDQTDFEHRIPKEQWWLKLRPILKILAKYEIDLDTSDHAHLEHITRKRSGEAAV
From the text: as §1, §3, §2

SMILES	labeling of WT vs mutant protein by probe (TTR)	labeling of WT vs mutant protein by probe (PFKP)	labeling of WT vs mutant protein by probe (PFKM)
C#CCCC(=O)Oc1c(F)c(F)c(S(=O)(=O)[O-])c(F)c1F.[Na+] [probe 1, reference compound]	HD (the WT labeled more than the mutant (>4x difference quantified))	HD (the WT labeled more than the mutant (>4x difference quantified))	HD (the WT labeled more than the mutant (>4x difference quantified))
C#CCCC(=O)Oc1c(F)c(F)c(F)c(F)c1F [probe 6, Pentafluorophenyl 4-pentynoate]	HD (the WT labeled more than the mutant (>4x difference quantified))	HD (the WT labeled more than the mutant (>4x difference quantified))	ND (the WT did not label more than the mutant (<2x difference quantified))
C#Cc1ccc(C(=O)Oc2ccccc2[N+](=O)[O-])cc1 [probe 10, 2-Nitrophenyl 4-ethynylbenzoate]	HD (the WT labeled more than the mutant (>4x difference quantified))	HD (the WT labeled more than the mutant (>4x difference quantified))	PD (the WT labeled more than the mutant (>2x difference quantified))
C#Cc1ccc(C(=O)Oc2c(F)c(F)cc(F)c2F)cc1 [probe 12, 2,3,5,6-Tetrafluorophenyl 4-ethynylbenzoate]	HD (the WT labeled more than the mutant (>4x difference quantified))	HD (the WT labeled more than the mutant (>4x difference quantified))	PD (the WT labeled more than the mutant (>2x difference quantified))
C#Cc1ccc(C(=O)Oc2c(F)c(F)c(F)c(F)c2F)cc1 [probe 13, Pentafluorophenyl 4-ethynylbenzoate]	HD (the WT labeled more than the mutant (>4x difference quantified))	HD (the WT labeled more than the mutant (>4x difference quantified))	PD (the WT labeled more than the mutant (>2x difference quantified))
Cc1cc(C)n2c1C=C1C=CC(CCC(=O)Oc3c(F)c(F)c(S(=O)(=O)[O-])c(F)c3F)=[N+]1[B-]2(F)F.[Na+] [probe 18, reference compound]	HD (the WT labeled more than the mutant (>4x difference quantified))	PD (the WT labeled more than the mutant (>2x difference quantified))	PD (the WT labeled more than the mutant (>2x difference quantified))
